Source: US8871753B2, “Macrocyclic compounds and their use as kinase inhibitors” (Incyte Corporation, priority 2008, dated 2014)

What was measured:
Assay type in all cases: biochemical
[1] = molecular target: T1, human JAK3 (a.a. 781-1124) (Homo sapiens, UniProt P52333); test: In vitro JAK kinase assay (HTRF, phosphorylation of a biotinylated peptide), JAK3; settings: Table D1
T1 construct: JAK3 (a.a. 781-1124); His tag (N); made in house; host or cells: insect cells (baculovirus)
Outline: (§1)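 Kinase reactions ran at room temperature for 1 h with ATP matched per isoform (JAK1 90 μM, JAK2 30 μM, JAK3 3 μM). After an EDTA stop, the phosphorylated biotin-peptide was read by HTRF using Eu-Py20 and SA-APC after 40 min binding.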

TYK2 = TYK2 (Homo sapiens, UniProt P29597); test: TYK2 kinase inhibition (Table A1); settings: Table D1
[2] = molecular target: T2, human JAK2 (a.a. 828-1132) (Homo sapiens, UniProt O60674); test: In vitro JAK kinase assay (HTRF, phosphorylation of a biotinylated peptide), JAK2; settings: Table D1
T2 construct: JAK2 (a.a. 828-1132); His tag (N); made in house; host or cells: insect cells (baculovirus)
Outline: as §1

[3] = molecular target: T3, human JAK1 (a.a. 837-1142) (Homo sapiens, UniProt P23458); test: In vitro JAK kinase assay (HTRF, phosphorylation of a biotinylated peptide), JAK1; settings: Table D1; read-out: JAK1 IC50
T3 construct: human JAK1 (a.a. 837-1142); His tag (N); made in house; host or cells: insect cells (baculovirus)
Outline: as §1

T2 sequence (O60674 828-1132): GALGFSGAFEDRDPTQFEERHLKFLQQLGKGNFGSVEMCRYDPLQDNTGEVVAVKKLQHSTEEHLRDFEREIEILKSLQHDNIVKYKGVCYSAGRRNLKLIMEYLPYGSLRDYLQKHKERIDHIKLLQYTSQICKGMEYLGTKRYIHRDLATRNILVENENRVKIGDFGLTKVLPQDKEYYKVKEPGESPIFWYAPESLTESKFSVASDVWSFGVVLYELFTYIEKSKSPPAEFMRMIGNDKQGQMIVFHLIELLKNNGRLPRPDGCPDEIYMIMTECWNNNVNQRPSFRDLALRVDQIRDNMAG
T3 sequence (P23458 849-1154): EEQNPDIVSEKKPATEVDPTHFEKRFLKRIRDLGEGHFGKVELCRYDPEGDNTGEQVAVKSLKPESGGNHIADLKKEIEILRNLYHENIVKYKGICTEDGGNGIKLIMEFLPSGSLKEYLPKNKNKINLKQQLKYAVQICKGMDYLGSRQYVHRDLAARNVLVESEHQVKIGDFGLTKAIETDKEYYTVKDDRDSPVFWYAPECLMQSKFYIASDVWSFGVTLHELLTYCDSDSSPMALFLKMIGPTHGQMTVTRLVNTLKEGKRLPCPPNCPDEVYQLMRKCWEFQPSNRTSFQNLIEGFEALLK
Sequence of TYK2 (P29597 whole entry): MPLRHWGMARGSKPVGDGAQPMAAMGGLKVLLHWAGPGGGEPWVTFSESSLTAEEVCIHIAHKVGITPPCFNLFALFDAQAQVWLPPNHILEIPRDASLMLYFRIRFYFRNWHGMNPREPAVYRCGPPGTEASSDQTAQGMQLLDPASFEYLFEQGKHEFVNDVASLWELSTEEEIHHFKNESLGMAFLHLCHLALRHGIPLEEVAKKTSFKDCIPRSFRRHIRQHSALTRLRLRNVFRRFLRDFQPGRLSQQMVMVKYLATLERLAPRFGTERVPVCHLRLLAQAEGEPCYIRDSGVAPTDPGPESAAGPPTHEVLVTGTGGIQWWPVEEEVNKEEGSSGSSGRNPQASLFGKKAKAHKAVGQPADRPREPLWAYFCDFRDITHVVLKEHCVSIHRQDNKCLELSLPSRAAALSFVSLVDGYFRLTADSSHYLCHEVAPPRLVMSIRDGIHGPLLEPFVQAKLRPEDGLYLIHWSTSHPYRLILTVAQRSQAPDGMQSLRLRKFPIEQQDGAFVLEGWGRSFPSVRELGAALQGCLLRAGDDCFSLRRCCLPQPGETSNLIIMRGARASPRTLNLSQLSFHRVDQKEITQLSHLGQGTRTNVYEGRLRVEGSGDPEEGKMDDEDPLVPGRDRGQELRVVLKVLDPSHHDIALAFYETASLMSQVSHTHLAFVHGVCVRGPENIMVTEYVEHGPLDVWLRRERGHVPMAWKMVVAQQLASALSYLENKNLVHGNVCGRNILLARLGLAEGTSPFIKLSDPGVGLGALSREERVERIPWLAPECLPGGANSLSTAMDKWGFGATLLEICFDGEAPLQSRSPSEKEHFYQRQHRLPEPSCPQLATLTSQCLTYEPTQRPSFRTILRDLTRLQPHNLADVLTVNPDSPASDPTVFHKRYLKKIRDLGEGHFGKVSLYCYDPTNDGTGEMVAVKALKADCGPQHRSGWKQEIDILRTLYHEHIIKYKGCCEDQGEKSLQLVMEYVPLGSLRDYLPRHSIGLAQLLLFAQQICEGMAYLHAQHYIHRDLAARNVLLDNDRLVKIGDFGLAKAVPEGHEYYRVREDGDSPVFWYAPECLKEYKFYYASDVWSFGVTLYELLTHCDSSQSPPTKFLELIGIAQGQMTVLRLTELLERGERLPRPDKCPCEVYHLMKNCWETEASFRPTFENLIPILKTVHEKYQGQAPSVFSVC
T1 sequence (P52333 781-1124): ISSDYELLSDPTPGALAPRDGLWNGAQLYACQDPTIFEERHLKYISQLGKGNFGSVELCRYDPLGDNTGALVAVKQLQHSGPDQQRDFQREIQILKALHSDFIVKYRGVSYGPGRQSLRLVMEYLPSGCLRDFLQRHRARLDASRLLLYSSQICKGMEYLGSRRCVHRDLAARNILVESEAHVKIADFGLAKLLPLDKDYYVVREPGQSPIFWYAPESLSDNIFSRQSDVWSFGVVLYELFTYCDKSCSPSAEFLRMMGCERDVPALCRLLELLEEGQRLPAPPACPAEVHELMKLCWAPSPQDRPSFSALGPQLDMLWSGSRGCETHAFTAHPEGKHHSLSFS

Compound	IC50 [1] [nM]	IC50 (TYK2) [nM]	IC50 [2] [nM]	IC50 [3] [nM]
NC1CCN(c2ccc3cc2CCc2cccc(c2)Nc2ncc(Cl)c(n2)N3)C1 (centres unmarked) [Example D88, 1-[6-Chloro-2,4,8,22-tetraazatetracyclo[14.3.1.1(3,7).1(9,13)]docosa-1(20),3(22),4,6,9(21),10,12,16,18-nonaen-12-yl]pyrrolidin-3-amine tris(trifluoroacetate)]	15	14	7.7	19
N#Cc1cccc(NC(=O)N2CCN(c3ccc4cc3CCc3cccc(c3)Nc3ncc(Cl)c(n3)N4)CC2)c1 [Example D89, 4-[6-Chloro-2,4,8,22-tetraazatetracyclo[14.3.1.1(3,7).1(9,13)]docosa-1(20),3(22),4,6,9(21),10,12,16,18-nonaen-12-yl]-N-(3-cyanophenyl)piperazine-1-carboxamide bis(trifluoroacetate)]	77	53	6.7	66
O=C(Nc1ccc(C(F)(F)F)cc1)N1CCN(c2ccc3cc2CCc2cccc(c2)Nc2ncc(Cl)c(n2)N3)CC1 [Example D90, 4-[6-Chloro-2,4,8,22-tetraazatetracyclo[14.3.1.1(3,7).1(9,13)]docosa-1(20),3(22),4,6,9(21),10,12,16,18-nonaen-12-yl]-N-[4-(trifluoromethyl)phenyl]piperazine-1-carboxamide bis(trifluoroacetate)]	108	70	23	127
O=C(Nc1cccc(C(F)(F)F)c1)N1CCN(c2ccc3cc2CCc2cccc(c2)Nc2ncc(Cl)c(n2)N3)CC1 [Example D91, 4-[6-Chloro-2,4,8,22-tetraazatetracyclo[14.3.1.1(3,7).1(9,13)]docosa-1(20),3(22),4,6,9(21),10,12,16,18-nonaen-12-yl]-N-[3-(trifluoromethyl)phenyl]piperazine-1-carboxamide bis(trifluoroacetate)]	133	156	32	146

Second part, the compound after the results:

IC50 [1] [nM]	IC50 (TYK2) [nM]	IC50 [2] [nM]	IC50 [3] [nM]	Compound
36	25	4.9	16	O=C(Nc1ccccc1)N1CCN(c2ccc3cc2CCc2cccc(c2)Nc2ncc(Cl)c(n2)N3)CC1 [Example D92, 4-[6-Chloro-2,4,8,22-tetraazatetracyclo[14.3.1.1(3,7).1(9,13)]docosa-1(20),3(22),4,6,9(21),10,12,16,18-nonaen-12-yl]-N-phenylpiperazine-1-carboxamide bis(trifluoroacetate)]
69	71	14	46	N#Cc1ccc(NC(=O)N2CCN(c3ccc4cc3CCc3cccc(c3)Nc3ncc(Cl)c(n3)N4)CC2)cc1 [Example D93, 4-[6-Chloro-2,4,8,22-tetraazatetracyclo[14.3.1.1(3,7).1(9,13)]docosa-1(20),3(22),4,6,9(21),10,12,16,18-nonaen-12-yl]-N-(4-cyanophenyl)piperazine-1-carboxamide bis(trifluoroacetate)]
138	160	43	79	O=C(c1ccccc1)N1CCN(c2ccc3cc2CCc2cccc(c2)Nc2ncc(Cl)c(n2)N3)CC1 [Example D94, 12-(4-Benzoylpiperazin-1-yl)-6-chloro-2,4,8,22-tetraazatetracyclo[14.3.1.1(3,7).1(9,13)]docosa-1(20),3(22),4,6,9(21),10,12,16,18-nonaene bis(trifluoroacetate)]
87	106	15	25	N#Cc1ccc(C(=O)N2CCN(c3ccc4cc3CCc3cccc(c3)Nc3ncc(Cl)c(n3)N4)CC2)cc1 [Example D95, 4-({4-[6-Chloro-2,4,8,22-tetraazatetracyclo[14.3.1.1(3,7).1(9,13)]docosa-1(20),3(22),4,6,9(21),10,12,16,18-nonaen-12-yl]piperazin-1-yl}carbonyl)benzonitrile bis(trifluoroacetate)]
